The target in assay [1] is T1, M2PYK (Homo sapiens, UniProt P14618).
T1 construct: and N-terminal domain (blue, residues 13–43. Residues 1–12, as well as additional residues from the His6-tagged construct); made in house; host or cells: Escherichia coli BL21(DE3), pET28a
The assay can be described thus: M2PYK activity at sub-saturating PEP and ADP: amino-acid IC50/Ki and serine versus alanine/phenylalanine competition. It is filed as biochemical. The procedure: (§1) For the determination of kinetics of M2PYK in the absence/presence of amino acid modulators, enzymatic activity assays were performed as follows. A 5 µl aliquot of 0.002 mg/ml M2PYK in PBS-CM was incubated with different concentrations of amino acids in PBS-CM supplemented with 1 mM dithiothreitol at 37°C at pH 7.4 for 10 min. […] For these uncompetitive inhibitors the Ki values were calculated to be equal to IC50/2.
The decrease in absorbance at 340 nm was measured for 5 min at 37°C using a plate reader. […]

Assay [2] concerns the target T1, M2PYK. The assay can be described thus: Enzyme kinetics of M2PYK for PEP with saturating ADP in presence of amino acids. It is filed as biochemical. The note with it: kinetic curves at different inhibitor concentrations. The procedure: as §1, with “min. Then, the same volume of assay buffer [PBS-CM supplemented with 10 mM MgCl2, 100 mM KCl, 1 mM NADH, 40 µmol/min ml LDH, as well as saturating ADP (4 mM) and titrated substrate PEP (0.15–10 mM)] was added.” for “min.”
Values of the kinetic parameters (Vmax, K0.5(PEP), and nH) were determined by fitting the equation below to the data. V=Vmax×[PEP]^nH/K0.5nH+[PEP]^nH The Lineweaver–Burk plots were fit using the equation below: Y=K0.5nH+(1/x)^nH/Vmax×(1/x)^nH The Berkley Madonna software (http://www.berkeleymadonna.com/) was used to model approximate proportions of monomer and tetramer M2PYK at given total protein concentrations. The calculation was based on a simplified tetramer [T] monomer [M] equilibrium: [T]⇌[M]+[M]+[M]+[M]withKd=[M]^4/[T] […] The association rate constant was scaled to give a Kd of 0.9 µM, which was estimated from analytical gel chromatography results.
The kinetic curves are shown in Figure 4 and Supplementary Figure S4.

Assay [3] concerns the target T2, M1PYK (Homo sapiens, UniProt P14618).
T2 construct: made in house; host or cells: Escherichia coli BL21(DE3), pET28a
The assay can be described thus: PYK activity modulator screen (LDH-coupled enzymatic activity assay). The note with it: 2.5 mM ligand; sub-saturating PEP and ADP; pH 7.4, 37°C; relative to no ligand. It is filed as biochemical. The procedure: For the identification of PYK activity modulators, enzymatic activity assays were performed as follows. A 1.9 µl aliquot of 20 mg/ml M1 or M2PYK in PBS-CM was added individually into […] of different amino acids at 5 mM in PBS-CM at pH 7.4 followed by an incubation at 37°C for 10 min. Then, the same volume of assay buffer [PBS-CM supplemented with 10 mM MgCl2, 100 mM KCl, 1 mM NADH, 40 µmol/min ml lactate dehydrogenase (LDH), as well as sub-saturating substrates PEP (1 mM) and ADP (0.8 mM)] was added into the protein solution and mixed (so the concentrations of all reagents were halved). The decrease in absorbance at 340 nm (the absorbance of NADH) was measured for 5 min at 37°C using a plate reader. PEP, ADP, LDH, NADH, FBP and all amino acids were from Sigma–Aldrich.
FBP was used as a positive control. The reaction was performed after pre-incubation in the presence of sub-saturating substrates in PBS at pH 7.4 at 37°C as described in Experimental Procedures.

The subject of a further assay is cell proliferation. More on the design: method as in PMID 23530218. The note with it: via activation or inhibition of M2PYK; cited from earlier work.
The subject of assay [4] is M1PYK. Details: method as in PMID 5166752, PMID 16634623. The note with it: cited from earlier work.

T1 sequence (P14618 whole entry, the tested form may be a part): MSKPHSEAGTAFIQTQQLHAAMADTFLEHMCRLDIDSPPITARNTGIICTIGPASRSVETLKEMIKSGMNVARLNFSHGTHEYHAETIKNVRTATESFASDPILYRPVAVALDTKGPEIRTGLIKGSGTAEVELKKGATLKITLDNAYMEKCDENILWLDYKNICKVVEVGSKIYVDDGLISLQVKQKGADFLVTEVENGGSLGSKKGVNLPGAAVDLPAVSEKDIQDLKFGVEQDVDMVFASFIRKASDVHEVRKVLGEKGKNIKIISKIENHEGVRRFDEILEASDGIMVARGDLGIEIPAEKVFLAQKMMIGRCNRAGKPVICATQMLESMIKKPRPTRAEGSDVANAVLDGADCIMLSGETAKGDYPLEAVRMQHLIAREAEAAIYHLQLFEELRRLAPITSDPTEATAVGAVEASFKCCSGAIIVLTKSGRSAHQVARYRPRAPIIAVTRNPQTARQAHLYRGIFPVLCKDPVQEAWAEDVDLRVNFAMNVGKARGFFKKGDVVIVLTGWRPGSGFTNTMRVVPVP
T2 sequence (P14618 1-531 isoform P14618-2): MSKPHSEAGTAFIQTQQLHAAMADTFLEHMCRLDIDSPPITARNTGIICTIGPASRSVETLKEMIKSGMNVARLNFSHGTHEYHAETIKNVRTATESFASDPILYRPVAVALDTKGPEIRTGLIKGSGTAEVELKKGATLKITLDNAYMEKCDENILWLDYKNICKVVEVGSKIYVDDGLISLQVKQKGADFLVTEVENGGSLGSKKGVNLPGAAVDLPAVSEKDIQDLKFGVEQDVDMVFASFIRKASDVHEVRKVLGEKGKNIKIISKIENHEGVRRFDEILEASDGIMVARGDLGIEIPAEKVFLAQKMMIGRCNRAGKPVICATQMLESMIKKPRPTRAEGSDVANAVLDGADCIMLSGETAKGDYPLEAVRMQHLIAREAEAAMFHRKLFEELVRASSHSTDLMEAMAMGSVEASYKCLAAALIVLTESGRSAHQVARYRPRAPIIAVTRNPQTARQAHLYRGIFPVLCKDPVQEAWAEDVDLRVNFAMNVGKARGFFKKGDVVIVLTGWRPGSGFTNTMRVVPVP

As for `N[C@@H](Cc1ccccc1)C(=O)O` [phenylalanine, L-phenylalanine], on M2PYK [1] (calculated as IC50/2 (uncompetitive inhibitors), read-out: inhibitor constant (Ki) against M2PYK), the Ki (as a rule, a dissociation constant, usually derived from enzyme kinetics or from competition with a known ligand) is 205 µM. Further, the M2PYK activity at M2PYK [1] (phenylalanine at ∼0.2 mM, no serine) is on record as roughly 65%; at M2PYK [1] (phenylalanine ∼0.2 mM in the presence of 0.6 mM serine) it was “nearly full activity”. Besides, on M2PYK [1] (sub-saturating PEP and ADP, 0 µM serine, read-out: IC50 against M2PYK), the IC50 (usually the point on the concentration scale where inhibition reaches its midpoint) was 410 µM. For the same compound, the “mode of inhibition of M2PYK” value at M2PYK [2] is recorded as “allosteric uncompetitive inhibitors”. Also, at M1PYK [3], the “inhibition of M1PYK activity” value worked out at 10%. For the same compound, in the assay on cell proliferation, the “effect on cell proliferation” value is “favours cell proliferation”. For the same compound, in the assay with M1PYK [4], the “regulatory effect on M1PYK enzymatic activity” value is on record as “non-competitive inhibition”.

The values are drawn from PMC5980995, “An allostatic mechanism for M2 pyruvate kinase as an amino-acid sensor” (Biochemical Journal, 2018).
